{"source": "the supplement of paper PMC10307832", "experiment_in_all_cases": "relative viability (nuclei count vs DMSO), 5 days (fraction); higher = more cells survive", "key": {"[1]": {"system": "HCC-15", "summary_of_the_method": "(§1)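 Each reported value is a median over duplicate plates. It expresses relative viability: treated-well nuclei count divided by vehicle-well nuclei count. Lung cancer cell lines in 1536-well plates were dosed by pin tool a day after seeding, alone with one drug or with a fixed anchor-drug dose plus five library-drug doses (not always all listed) in √10 steps, and nuclei were counted after 5 days.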"}, "[2]": {"system": "NCI-H358", "summary_of_the_method": "as §1"}, "[3]": {"system": "NCI-H23", "summary_of_the_method": "as §1"}, "[4]": {"system": "NCI-H1975", "summary_of_the_method": "as §1"}, "[5]": {"system": "NCI-H838", "summary_of_the_method": "as §1"}, "[6]": {"system": "BEN", "summary_of_the_method": "as §1"}, "[7]": {"system": "NCI-H1437", "summary_of_the_method": "as §1"}, "[8]": {"system": "201T", "summary_of_the_method": "as §1"}, "[9]": {"system": "NCI-H2342", "summary_of_the_method": "as §1"}, "[10]": {"system": "NCI-H596", "summary_of_the_method": "as §1"}, "[11]": {"system": "SK-MES-1", "summary_of_the_method": "as §1"}, "[12]": {"system": "HARA", "summary_of_the_method": "as §1"}, "[13]": {"system": "HCC-44", "summary_of_the_method": "as §1"}, "[14]": {"system": "NCI-H1650", "summary_of_the_method": "as §1"}, "[15]": {"system": "EKVX", "summary_of_the_method": "as §1"}, "[16]": {"system": "COR-L23", "summary_of_the_method": "as §1"}, "[17]": {"system": "NCI-H1792", "summary_of_the_method": "as §1"}, "[18]": {"system": "NCI-H650", "summary_of_the_method": "as §1"}, "[19]": {"system": "NCI-H441", "summary_of_the_method": "as §1"}, "[20]": {"system": "HCC-827", "summary_of_the_method": "as §1"}, "[21]": {"system": "A-427", "summary_of_the_method": "as §1"}, "[22]": {"system": "SW 900", "summary_of_the_method": "as §1"}}, "data": [{"smiles": "COc1cc2nccc(Oc3ccc(NC(=O)Nc4cc(C)on4)c(Cl)c3)c2cc1OC", "note": "[Tivozanib] + Nc1ncn([C@H]2C[C@H](O)[C@@H](CO)O2)c(=O)n1 [Decitabine] (partner 2 µM)", "values": [{"measurement": "relative viability", "setting": "[1]; first compound 0.005 µM", "value": 0.613}, {"measurement": "relative viability", "setting": "[1]; first compound 0.01581 µM", "value": 0.612}, {"measurement": "relative viability", "setting": "[1]; first compound 0.05 µM", "value": 0.641}, {"measurement": "relative viability", "setting": "[1]; first compound 0.1581 µM", "value": 0.727}, {"measurement": "relative viability", "setting": "[1]; first compound 0.5 µM", "value": 0.639}, {"measurement": "relative viability", "setting": "[2]; first compound 0.005 µM", "value": 0.187}, {"measurement": "relative viability", "setting": "[2]; first compound 0.01581 µM", "value": 0.217}, {"measurement": "relative viability", "setting": "[2]; first compound 0.05 µM", "value": 0.215}, {"measurement": "relative viability", "setting": "[2]; first compound 0.1581 µM", "value": 0.222}, {"measurement": "relative viability", "setting": "[2]; first compound 0.5 µM", "value": 0.206}, {"measurement": "relative viability", "setting": "[3]; first compound 0.005 µM", "value": 0.304}, {"measurement": "relative viability", "setting": "[3]; first compound 0.01581 µM", "value": 0.279}, {"measurement": "relative viability", "setting": "[3]; first compound 0.05 µM", "value": 0.3}, {"measurement": "relative viability", "setting": "[3]; first compound 0.5 µM", "value": 0.309}, {"measurement": "relative viability", "setting": "[4]; first compound 0.005 µM", "value": 0.36}, {"measurement": "relative viability", "setting": "[4]; first compound 0.01581 µM", "value": 0.414}, {"measurement": "relative viability", "setting": "[4]; first compound 0.05 µM", "value": 0.352}, {"measurement": "relative viability", "setting": "[4]; first compound 0.1581 µM", "value": 0.362}, {"measurement": "relative viability", "setting": "[4]; first compound 0.5 µM", "value": 0.405}, {"measurement": "relative viability", "setting": "[5]; first compound 0.005 µM", "value": 0.431}, {"measurement": "relative viability", "setting": "[5]; first compound 0.01581 µM", "value": 0.499}, {"measurement": "relative viability", "setting": "[5]; first compound 0.05 µM", "value": 0.446}, {"measurement": "relative viability", "setting": "[5]; first compound 0.1581 µM", "value": 0.482}, {"measurement": "relative viability", "setting": "[5]; first compound 0.5 µM", "value": 0.428}, {"measurement": "relative viability", "setting": "[6]; first compound 0.005 µM", "value": 0.725}, {"measurement": "relative viability", "setting": "[6]; first compound 0.01581 µM", "value": 0.703}, {"measurement": "relative viability", "setting": "[6]; first compound 0.05 µM", "value": 0.761}, {"measurement": "relative viability", "setting": "[6]; first compound 0.1581 µM", "value": 0.471}, {"measurement": "relative viability", "setting": "[6]; first compound 0.5 µM", "value": 0.563}, {"measurement": "relative viability", "setting": "[7]; first compound 0.005 µM", "value": 0.629}, {"measurement": "relative viability", "setting": "[7]; first compound 0.01581 µM", "value": 0.582}, {"measurement": "relative viability", "setting": "[7]; first compound 0.05 µM", "value": 0.594}, {"measurement": "relative viability", "setting": "[7]; first compound 0.1581 µM", "value": 0.653}, {"measurement": "relative viability", "setting": "[7]; first compound 0.5 µM", "value": 0.564}, {"measurement": "relative viability", "setting": "[8]; first compound 0.005 µM", "value": 0.85}, {"measurement": "relative viability", "setting": "[8]; first compound 0.01581 µM", "value": 0.855}, {"measurement": "relative viability", "setting": "[8]; first compound 0.05 µM", "value": 0.87}, {"measurement": "relative viability", "setting": "[8]; first compound 0.1581 µM", "value": 0.854}, {"measurement": "relative viability", "setting": "[8]; first compound 0.5 µM", "value": 0.896}, {"measurement": "relative viability", "setting": "[9]; first compound 0.005 µM", "value": 0.678}, {"measurement": "relative viability", "setting": "[9]; first compound 0.01581 µM", "value": 0.646}, {"measurement": "relative viability", "setting": "[9]; first compound 0.05 µM", "value": 0.789}, {"measurement": "relative viability", "setting": "[9]; first compound 0.5 µM", "value": 0.712}, {"measurement": "relative viability", "setting": "[10]; first compound 0.005 µM", "value": 0.975}, {"measurement": "relative viability", "setting": "[10]; first compound 0.01581 µM", "value": 0.994}, {"measurement": "relative viability", "setting": "[10]; first compound 0.05 µM", "value": 1.15}, {"measurement": "relative viability", "setting": "[10]; first compound 0.5 µM", "value": 1.03}, {"measurement": "relative viability", "setting": "[11]; first compound 0.005 µM", "value": 0.363}, {"measurement": "relative viability", "setting": "[11]; first compound 0.01581 µM", "value": 0.363}, {"measurement": "relative viability", "setting": "[11]; first compound 0.05 µM", "value": 0.371}, {"measurement": "relative viability", "setting": "[11]; first compound 0.1581 µM", "value": 0.393}, {"measurement": "relative viability", "setting": "[11]; first compound 0.5 µM", "value": 0.435}, {"measurement": "relative viability", "setting": "[12]; first compound 0.005 µM", "value": 0.469}, {"measurement": "relative viability", "setting": "[12]; first compound 0.01581 µM", "value": 0.571}, {"measurement": "relative viability", "setting": "[12]; first compound 0.05 µM", "value": 0.59}, {"measurement": "relative viability", "setting": "[12]; first compound 0.1581 µM", "value": 0.652}, {"measurement": "relative viability", "setting": "[12]; first compound 0.5 µM", "value": 0.793}, {"measurement": "relative viability", "setting": "[13]; first compound 0.005 µM", "value": 0.92}, {"measurement": "relative viability", "setting": "[13]; first compound 0.01581 µM", "value": 0.964}, {"measurement": "relative viability", "setting": "[13]; first compound 0.05 µM", "value": 0.956}, {"measurement": "relative viability", "setting": "[13]; first compound 0.1581 µM", "value": 0.982}, {"measurement": "relative viability", "setting": "[13]; first compound 0.5 µM", "value": 0.937}, {"measurement": "relative viability", "setting": "[14]; first compound 0.005 µM", "value": 0.412}, {"measurement": "relative viability", "setting": "[14]; first compound 0.01581 µM", "value": 0.493}, {"measurement": "relative viability", "setting": "[14]; first compound 0.05 µM", "value": 0.507}, {"measurement": "relative viability", "setting": "[14]; first compound 0.1581 µM", "value": 0.508}, {"measurement": "relative viability", "setting": "[14]; first compound 0.5 µM", "value": 0.411}, {"measurement": "relative viability", "setting": "[15]; first compound 0.005 µM", "value": 0.308}, {"measurement": "relative viability", "setting": "[15]; first compound 0.01581 µM", "value": 0.353}, {"measurement": "relative viability", "setting": "[15]; first compound 0.05 µM", "value": 0.386}, {"measurement": "relative viability", "setting": "[15]; first compound 0.1581 µM", "value": 0.363}, {"measurement": "relative viability", "setting": "[15]; first compound 0.5 µM", "value": 0.313}, {"measurement": "relative viability", "setting": "[16]; first compound 0.005 µM", "value": 0.391}, {"measurement": "relative viability", "setting": "[16]; first compound 0.01581 µM", "value": 0.398}, {"measurement": "relative viability", "setting": "[16]; first compound 0.05 µM", "value": 0.403}, {"measurement": "relative viability", "setting": "[16]; first compound 0.1581 µM", "value": 0.317}, {"measurement": "relative viability", "setting": "[16]; first compound 0.5 µM", "value": 0.372}, {"measurement": "relative viability", "setting": "[17]; first compound 0.005 µM", "value": 0.514}, {"measurement": "relative viability", "setting": "[17]; first compound 0.01581 µM", "value": 0.538}, {"measurement": "relative viability", "setting": "[17]; first compound 0.05 µM", "value": 0.574}, {"measurement": "relative viability", "setting": "[17]; first compound 0.5 µM", "value": 0.499}, {"measurement": "relative viability", "setting": "[18]; first compound 0.005 µM", "value": 0.296}, {"measurement": "relative viability", "setting": "[18]; first compound 0.01581 µM", "value": 0.299}, {"measurement": "relative viability", "setting": "[18]; first compound 0.05 µM", "value": 0.35}, {"measurement": "relative viability", "setting": "[18]; first compound 0.1581 µM", "value": 0.312}, {"measurement": "relative viability", "setting": "[18]; first compound 0.5 µM", "value": 0.294}, {"measurement": "relative viability", "setting": "[19]; first compound 0.005 µM", "value": 0.262}, {"measurement": "relative viability", "setting": "[19]; first compound 0.01581 µM", "value": 0.25}, {"measurement": "relative viability", "setting": "[19]; first compound 0.05 µM", "value": 0.218}, {"measurement": "relative viability", "setting": "[19]; first compound 0.1581 µM", "value": 0.281}, {"measurement": "relative viability", "setting": "[19]; first compound 0.5 µM", "value": 0.224}, {"measurement": "relative viability", "setting": "[20]; first compound 0.005 µM", "value": 0.264}, {"measurement": "relative viability", "setting": "[20]; first compound 0.01581 µM", "value": 0.345}, {"measurement": "relative viability", "setting": "[20]; first compound 0.05 µM", "value": 0.311}, {"measurement": "relative viability", "setting": "[20]; first compound 0.1581 µM", "value": 0.289}, {"measurement": "relative viability", "setting": "[20]; first compound 0.5 µM", "value": 0.268}, {"measurement": "relative viability", "setting": "[21]; first compound 0.005 µM", "value": 0.566}, {"measurement": "relative viability", "setting": "[21]; first compound 0.01581 µM", "value": 0.551}, {"measurement": "relative viability", "setting": "[21]; first compound 0.05 µM", "value": 0.575}, {"measurement": "relative viability", "setting": "[21]; first compound 0.1581 µM", "value": 0.566}, {"measurement": "relative viability", "setting": "[21]; first compound 0.5 µM", "value": 0.543}, {"measurement": "relative viability", "setting": "[22]; first compound 0.005 µM", "value": 0.454}, {"measurement": "relative viability", "setting": "[22]; first compound 0.01581 µM", "value": 0.411}, {"measurement": "relative viability", "setting": "[22]; first compound 0.05 µM", "value": 0.454}, {"measurement": "relative viability", "setting": "[22]; first compound 0.5 µM", "value": 0.389}]}]}
